Assay results from ChEMBL document CHEMBL1201862, “PubChem BioAssay data set” (2004).
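Compound exposure: 48 hours, 5 concentrations, 96-well plates. At the GI50, growth is halved.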 Active and inactive are the calls of the source. Rule as the data show it: active = GI50 up to about 1.1 µM and inactive = higher.

Experiments:
Test in all cases: NCI tumour cell line growth inhibition, 48 h
786-0 = test system: 786-0
A498 = test system: A498
A549 = test system: A549
ACHN = test system: ACHN
BT-549 = test system: BT-549
CAKI-1 = test system: CAKI-1
CCRF-CEM = test system: CCRF-CEM
COLO 205 = test system: COLO 205
DU-145 = test system: DU-145
EKVX = test system: EKVX
HCC 2998 = test system: HCC 2998
HCT-116 = test system: HCT-116
HCT-15 = test system: HCT-15
HL-60 = test system: HL-60
HOP-62 = test system: HOP-62
HOP-92 = test system: HOP-92
HT-29 = test system: HT-29
Hs-578T = test system: Hs-578T
IGROV-1 = test system: IGROV-1
K562 = test system: K562
KM12 = test system: KM12
LOX IMVI = test system: LOX IMVI
M14 = test system: M14
MCF7 = test system: MCF7
MDA-MB-231 = test system: MDA-MB-231
MDA-MB-435 = test system: MDA-MB-435
MOLT-4 = test system: MOLT-4
Malme-3M = test system: Malme-3M
NCI-H226 = test system: NCI-H226
NCI-H23 = test system: NCI-H23
NCI-H460 = test system: NCI-H460
NCI-H522 = test system: NCI-H522
NCI/ADR-RES = test system: NCI/ADR-RES
OVCAR-3 = test system: OVCAR-3
OVCAR-4 = test system: OVCAR-4
OVCAR-5 = test system: OVCAR-5
OVCAR-8 = test system: OVCAR-8
PC-3 = test system: PC-3
RPMI-8226 = test system: RPMI-8226
RXF 393 = test system: RXF 393
SF-268 = test system: SF-268
SF-295 = test system: SF-295
SF-539 = test system: SF-539
SK-MEL-28 = test system: SK-MEL-28
SK-MEL-2 = test system: SK-MEL-2
SK-MEL-5 = test system: SK-MEL-5
SK-OV-3 = test system: SK-OV-3
SN12C = test system: SN12C
SNB-19 = test system: SNB-19
SNB-75 = test system: SNB-75
SW-620 = test system: SW-620
T47D = test system: T47D
TK-10 = test system: TK-10
U-251 = test system: U-251
UACC-257 = test system: UACC-257
UACC-62 = test system: UACC-62
UO-31 = test system: UO-31

For O=C1N2CCC[C@H]2CS1(=O)=O, the GI50 (786-0) was 11.1 µM (inactive), the GI50 (A498) was 20.4 µM (inactive) and the GI50 (A549) was 22.8 µM (inactive). The GI50 (ACHN) was 15.2 µM (inactive), the GI50 (BT-549) was 14.8 µM (inactive) and the GI50 (CAKI-1) was 5.73 µM (inactive). For the same molecule, the GI50 (CCRF-CEM) was 2.3 µM (inactive), the GI50 (COLO 205) was 12.2 µM (inactive) and the GI50 (DU-145) was 17.9 µM (inactive). The GI50 (EKVX) was 22 µM (inactive), the GI50 (HCC 2998) was 17.3 µM (inactive) and the GI50 (HCT-116) was 12.7 µM (inactive). The GI50 (HCT-15) was 12.6 µM, the GI50 (HL-60) was 19.1 µM (inactive) and the GI50 (HOP-62) was 16.1 µM (inactive). For the same molecule, the GI50 (HOP-92) was 10.9 µM (inactive), the GI50 (HT-29) was 28.5 µM (inactive) and the GI50 (Hs-578T) was 55.1 µM (inactive). The GI50 (IGROV-1) was 15.5 µM (inactive), the GI50 (K562) was 5.62 µM (inactive) and the GI50 (KM12) was 16.6 µM (inactive). The GI50 (LOX IMVI) was 11.3 µM (inactive), the GI50 (M14) was 14.6 µM (inactive) and the GI50 (MCF7) was 6.73 µM (inactive). The GI50 (MDA-MB-231) was 15.4 µM (inactive), the GI50 (MDA-MB-435) was 17.1 µM (inactive) and the GI50 (MOLT-4) was 3.34 µM (inactive). For the same molecule, the GI50 (Malme-3M) was 13.2 µM (inactive), the GI50 (NCI-H226) was 25.4 µM (inactive) and the GI50 (NCI-H23) was 15.8 µM (inactive). For the same molecule, the GI50 (NCI-H460) was 32.7 µM (inactive), the GI50 (NCI-H522) was 5.66 µM (inactive) and the GI50 (NCI/ADR-RES) was 30 µM (inactive). For the same molecule, the GI50 (OVCAR-3) was 15.8 µM (inactive), the GI50 (OVCAR-4) was 11.8 µM (inactive) and the GI50 (OVCAR-5) was 36.9 µM (inactive). For the same molecule, the GI50 (OVCAR-8) was 13.6 µM (inactive), the GI50 (PC-3) was 16.5 µM (inactive) and the GI50 (RPMI-8226) was 2.77 µM (inactive). The GI50 (RXF 393) was 7.36 µM (inactive), the GI50 (SF-268) was 20.7 µM (inactive) and the GI50 (SF-295) was 40.2 µM (inactive). The GI50 (SF-539) was 29.5 µM (inactive), the GI50 (SK-MEL-28) was 18.4 µM (inactive) and the GI50 (SK-MEL-2) was 17.6 µM (inactive). The GI50 (SK-MEL-5) was 17.5 µM (inactive), the GI50 (SK-OV-3) was 36.6 µM (inactive) and the GI50 (SN12C) was 15.7 µM (inactive). The GI50 (SNB-19) was 35.9 µM (inactive), the GI50 (SNB-75) was 18.6 µM (inactive) and the GI50 (SW-620) was 8 µM (inactive). For the same molecule, the GI50 (T47D) was 13.5 µM (inactive), the GI50 (TK-10) was 18.2 µM (inactive) and the GI50 (U-251) was 16.5 µM (inactive). The GI50 (UACC-257) was 18.7 µM (inactive), the GI50 (UACC-62) was 16.4 µM (inactive) and the GI50 (UO-31) was 14.5 µM (inactive).
